Results as given in the NIST ThermoML archive (doi:10.1021/je060271a).

Details: Liquid, Vibrating tube method

CCCCCC(=O)OCC(COC(=O)CCCCC)(COC(=O)CCCCC)COC(=O)CCCCC [pentaerythritol tetrahexanoate]
Details | mass density [kg/m3]
323.16 K, 30799 kPa | 992.6
323.16 K, 30820 kPa | 992.6
323.16 K, 30845 kPa | 992.6
323.16 K, 30870 kPa | 992.7
323.16 K, 30895 kPa | 992.6
323.16 K, 30916 kPa | 992.5
323.16 K, 30942 kPa | 992.7
323.16 K, 30968 kPa | 992.6
323.16 K, 30994 kPa | 992.7
323.16 K, 31020 kPa | 992.9
323.16 K, 31046 kPa | 992.7
323.16 K, 31070 kPa | 992.8
323.16 K, 31096 kPa | 992.8
323.16 K, 31122 kPa | 992.8
323.16 K, 31139 kPa | 992.8
323.16 K, 31159 kPa | 992.8
323.16 K, 31180 kPa | 992.8
323.16 K, 31200 kPa | 992.8
323.16 K, 31217 kPa | 992.9
323.16 K, 31237 kPa | 992.9
323.16 K, 31258 kPa | 992.9
323.16 K, 31278 kPa | 993
323.16 K, 31295 kPa | 992.7
323.16 K, 31315 kPa | 993
323.16 K, 31335 kPa | 992.9
323.16 K, 31356 kPa | 993
323.16 K, 31378 kPa | 992.9
323.16 K, 31395 kPa | 992.9
323.16 K, 31412 kPa | 993
323.16 K, 31433 kPa | 993.1
323.16 K, 31554 kPa | 993.1
323.16 K, 31575 kPa | 993.1
323.16 K, 31592 kPa | 993.1
323.16 K, 31613 kPa | 993
323.16 K, 31635 kPa | 993
323.16 K, 31777 kPa | 993.1
323.16 K, 31798 kPa | 993.2
323.16 K, 31820 kPa | 993.2
323.16 K, 31838 kPa | 993.2
323.16 K, 31860 kPa | 993.2
323.16 K, 31882 kPa | 993.2
323.16 K, 31905 kPa | 993.3
323.16 K, 31927 kPa | 993.3
323.16 K, 31950 kPa | 993.2
323.16 K, 31973 kPa | 993.4
323.16 K, 31996 kPa | 993.3
323.16 K, 32016 kPa | 993.3
323.16 K, 32032 kPa | 993.4
323.16 K, 32048 kPa | 993.4
323.16 K, 32064 kPa | 993.3
323.16 K, 32081 kPa | 993.4
323.16 K, 32097 kPa | 993.3
323.16 K, 32114 kPa | 993.3
323.16 K, 32132 kPa | 993.4
323.16 K, 32149 kPa | 993.3
323.16 K, 32165 kPa | 993.4
323.16 K, 32183 kPa | 993.4
323.16 K, 32202 kPa | 993.5
323.16 K, 32221 kPa | 993.5
323.16 K, 32240 kPa | 993.4
323.16 K, 32260 kPa | 993.5
323.16 K, 32366 kPa | 993.4
323.16 K, 32374 kPa | 993.5
323.16 K, 32380 kPa | 993.5
323.16 K, 32383 kPa | 993.5
323.17 K, 1378.9 kPa | 973.7
323.17 K, 2060 kPa | 974
323.17 K, 2070.1 kPa | 974.2
323.17 K, 15528 kPa | 983.3
323.17 K, 15553 kPa | 983.3
323.17 K, 15582 kPa | 983.4
323.17 K, 15606 kPa | 983.4
323.17 K, 15845 kPa | 983.4
323.17 K, 15865 kPa | 983.5
323.17 K, 15889 kPa | 983.4
323.17 K, 15909 kPa | 983.5
323.17 K, 15932 kPa | 983.5
323.17 K, 15952 kPa | 983.3
323.17 K, 15976 kPa | 983.5
323.17 K, 16001 kPa | 983.4
323.17 K, 16021 kPa | 983.6
323.17 K, 16045 kPa | 983.5
323.17 K, 16069 kPa | 983.6
323.17 K, 16089 kPa | 983.6
323.17 K, 16114 kPa | 983.7
323.17 K, 16135 kPa | 983.7
323.17 K, 16160 kPa | 983.6
323.17 K, 16308 kPa | 983.8
323.17 K, 16329 kPa | 983.7
323.17 K, 16337 kPa | 983.7
323.17 K, 16338 kPa | 983.8
323.17 K, 16340 kPa | 983.8
323.17 K, 19154 kPa | 985.4
323.17 K, 19182 kPa | 985.6
323.17 K, 19210 kPa | 985.5
323.17 K, 19238 kPa | 985.5
323.17 K, 19267 kPa | 985.7
323.17 K, 19296 kPa | 985.6
323.17 K, 19320 kPa | 985.7
323.17 K, 19350 kPa | 985.6
323.17 K, 20368 kPa | 986.3
323.17 K, 20425 kPa | 986.4
323.17 K, 22257 kPa | 987.5
323.17 K, 22284 kPa | 987.5
323.17 K, 22311 kPa | 987.5
323.17 K, 22338 kPa | 987.6
323.17 K, 22361 kPa | 987.6
323.17 K, 22388 kPa | 987.5
323.17 K, 22416 kPa | 987.7
323.17 K, 22443 kPa | 987.6
323.17 K, 22466 kPa | 987.7
323.17 K, 22493 kPa | 987.7
323.17 K, 22520 kPa | 987.5
323.17 K, 25533 kPa | 989.4
323.17 K, 25562 kPa | 989.5
323.17 K, 25592 kPa | 989.5
323.17 K, 25621 kPa | 989.5
323.17 K, 25651 kPa | 989.4
323.17 K, 25676 kPa | 989.5
323.17 K, 25737 kPa | 989.6
323.17 K, 25767 kPa | 989.6
323.17 K, 25792 kPa | 989.7
323.17 K, 25823 kPa | 989.7
323.17 K, 25853 kPa | 989.7
323.17 K, 25884 kPa | 989.6
323.17 K, 25909 kPa | 989.8
323.17 K, 25940 kPa | 989.8
323.17 K, 25972 kPa | 989.8
323.17 K, 26003 kPa | 989.7
323.17 K, 26033 kPa | 989.7
323.17 K, 26762 kPa | 990.3
323.17 K, 26791 kPa | 990.3
323.17 K, 26815 kPa | 990.1
323.17 K, 26845 kPa | 990.3
323.17 K, 26872 kPa | 990.3
323.17 K, 26901 kPa | 990.4
323.17 K, 26930 kPa | 990.4
323.17 K, 26959 kPa | 990.3
323.17 K, 26984 kPa | 990.3
323.17 K, 27013 kPa | 990.3
323.17 K, 27043 kPa | 990.5
323.17 K, 27073 kPa | 990.4
323.17 K, 27102 kPa | 990.4
323.17 K, 27127 kPa | 990.4
323.17 K, 27157 kPa | 990.4
